Assay results as given in patent publication US12714097B2, “Compositions and systems for disinfection” (Markesbery Blue Pearl LLC, priority 2017, dated 2026).
Converted amounts (≈) assume the structure as drawn.

Legend:
[1] = cited from earlier work; for Sol (Exp): experimental water solubility; for solubility: aqueous, at 25° C.
[2] = cited from earlier work; for log P Exp.: experimentally determined, database entry; for Log P: known values used for standard curve
[3] = Experimental water solubility of alcohol compounds at 25° C.

CCC(C)(C)CO [2,2-Dimethyl-1-butanol]
Sol (Exp) ([1]; 25° C.): 7.6 g/L

CC(C)C(C)(C)O [2,3-Dimethyl-2-butanol]
Sol (Exp) ([1]; 25° C.): 43.5 g/L

CCC(C)C(C)(C)O (centres unmarked) [2,3-Dimethyl-2-pentanol]
Sol (Exp) ([1]; 25° C.): 15.7 g/L

CC(C)CC(C)(C)O [2,4-Dimethyl-2-pentanol]
Sol (Exp) ([1]; 25° C.): 13.6 g/L

CC(C)C(O)C(C)C [2,4-Dimethyl-3-pentanol]
Sol (Exp) ([1]; 25° C.): 7 g/L

CC=CC=CCO [2,4-Hexadien-1-ol]
log P Exp. [2]: 1.334

CCC(CC)CO [2-Ethyl-1-butanol]
Sol (Exp) ([1]; 25° C.): 4 g/L

CCCCC(C)O (centres unmarked) [2-hexanol]
Sol (Exp) ([1]; 25° C.): 13.7 g/L | log P Exp. [2]: 1.76 | Log P [2]: 1.76

Cc1ccccc1O [2-methyl phenol]
Sol (Exp) ([1]; 25° C.): 25.9 g/L

CCCC(C)O (centres unmarked) [2-pentanol]
Sol (Exp) ([1]; 25° C.): 44.6 g/L | Log P [2]: 1.19

CC(C)=CCO [3-Methyl-2-buten-1-ol]
log P Exp. [2]: 1.244

CCCC(O)CC (centres unmarked) [3-hexanol]
Sol (Exp) ([1]; 25° C.): 16.1 g/L | Solubility (at 25° C.) ([1]; water, 25° C., known values used for standard curve): 16.1 mg/mL (≈ 158 mM) | log P Exp. [2]: 1.65 | Log P [2]: 1.65

CC(C)CCO [3-methyl-1-butanol]
Sol (Exp) ([1]; 25° C.): 26.7 g/L

CCC(O)CC [3-pentanol]
Sol (Exp) ([1]; 25° C.): 51.5 g/L | log P Exp. [2]: 1.21 | Log P [2]: 1.21

CC(C)CCCO [4-Methyl-1-pentanol]
Sol (Exp) ([1]; 25° C.): 7.6 g/L

CCCCCCCCO [n-octanol]
solubility [1]: 0.5 grams per liter

CCCCCO [n-pentanol]
solubility [1]: 22 grams per liter | Sol (Exp) ([1]; 25° C.): 22 g/L | solubility converted to percent by weight of an aqueous composition [3]: 2.2 % by weight | log P Exp. [2]: 1.51 | Log P [2]: 1.51
